Assay results taken from US6355799B1, “Substituted benzene compounds, process for their preparation, and herbicidal and defoliant compositions containing them” (ISK Americas Incorporated, priority 1997, dated 2002).

Columns and labels:
Assay type in all cases: in vivo
[1] = test system: redroot pigweed (Amaranthus retroflexus, AMARE); assay: Pre-emerge test, greenhouse herbicide activity screening; details: pre-emerge, rated 14 days after application, 0 = no damage, 100 = complete death
Outline: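 Plants grown in 10 cm pots of sandy loam mix received acetone-dissolved compounds through a moving flat-fan nozzle. Doses ranged from 15 to 1000 g ai/ha. Pre-emerge pots were seeded one day earlier, post-emerge pots 8–21 days earlier. Fourteen days on, each pot was graded 0–100 for damage.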

[2] = test system: johnsongrass (Sorghum halepense, SORHA); assay: as above; details: pre-emerge, rated 14 days after application, 0 = no damage, 100 = complete death
Outline: (§1)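 Compounds in acetone were track-sprayed at 15–1000 g ai/ha: pre-emergence onto soil sown the previous day, then top-watered to incorporate and later bottom-watered; post-emergence onto 2–3 leaf plants with 0.25% v/v surfactant, bottom-watered only. Ratings on a 0–100 phytotoxicity scale were taken at day 14.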

[3] = test system: velvetleaf (Abutilon theophrasti, ABUTH); assay: as above; details: pre-emerge, rated 14 days after application, 0 = no damage, 100 = complete death
Outline: as §1

[4] = test system: lambsquarters (Chenopodium album, CHEAL); assay: as above; details: pre-emerge, rated 14 days after application, 0 = no damage, 100 = complete death
Outline: as §1

[5] = test system: ivyleaf morningglory (Ipomoea hederacea, IPOHE); assay: as above; details: pre-emerge, rated 14 days after application, 0 = no damage, 100 = complete death
Outline: as §1

[6] = test system: green foxtail (Setaria viridis, SETVI); assay: as above; details: pre-emerge, rated 14 days after application, 0 = no damage, 100 = complete death
Outline: as §1

[7] = test system: barnyardgrass (Echinochloa crus-galli, ECHCG); assay: as above; details: pre-emerge, rated 14 days after application, 0 = no damage, 100 = complete death
Outline: as §1

[8] = test system: large crabgrass (Digitaria sanguinalis, DIGSA); assay: as above; details: pre-emerge, rated 14 days after application, 0 = no damage, 100 = complete death
Outline: as §1

[9] = test system: sicklepod (Cassia obtusifolia, CASOB); assay: as above; details: pre-emerge, rated 14 days after application, 0 = no damage, 100 = complete death
Outline: as §1

[10] = test system: upland rice (Oryza sp., var. Tebonnet, RICE); assay: Pre-emerge test, crop safety; details: pre-emerge, rated 14 days after application, 0 = no damage, 100 = complete death
Outline: (§2)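 Rating: 0–100 visual injury, 14 DAA. Application: acetone, 187 l/ha, 15–1000 g ai/ha, flat-fan track sprayer with nozzle 40–45 cm above soil or canopy. Post-emerge runs used 0.25% v/v surfactant on 2–3 leaf plants.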

[11] = test system: field corn (Zea mays L., var. Dekalb 535, CORN); assay: Pre-emerge test, crop safety; details: pre-emerge, rated 14 days after application, 0 = no damage, 100 = complete death
Outline: as §2

[12] = test system: upland rice (Oryza sp., var. Tebonnet, RICE); assay: Post-emerge test, crop safety; details: phytotoxicity rating 0-100 (0 no damage, 100 complete death), 14 days after application
Outline: as §2

[13] = test system: field corn (Zea mays L., var. Dekalb 535, CORN); assay: Post-emerge test, crop safety; details: phytotoxicity rating 0-100 (0 no damage, 100 complete death), 14 days after application
Outline: as §2

[14] = test system: johnsongrass (Sorghum halepense, SORHA); assay: Post-emerge test, greenhouse herbicide activity screening; details: phytotoxicity rating 0-100 (0 no damage, 100 complete death), 14 days after application
Outline: (§3)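 Fourteen days after spraying, crop and weed injury was graded visually from 0, no effect, to 100, every plant dead. Test substances were dissolved in acetone and applied at 15–1000 g ai/ha with a flat-fan nozzle. Application was either pre-emergence, one day after sowing, or post-emergence at the 2–3 leaf stage.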

[15] = test system: velvetleaf (Abutilon theophrasti, ABUTH); assay: as above; details: phytotoxicity rating 0-100 (0 no damage, 100 complete death), 14 days after application
Outline: as §3

[16] = test system: lambsquarters (Chenopodium album, CHEAL); assay: as above; details: phytotoxicity rating 0-100 (0 no damage, 100 complete death), 14 days after application
Outline: as §3

[17] = test system: ivyleaf morningglory (Ipomoea hederacea, IPOHE); assay: as above; details: phytotoxicity rating 0-100 (0 no damage, 100 complete death), 14 days after application
Outline: as §3

[18] = test system: green foxtail (Setaria viridis, SETVI); assay: as above; details: phytotoxicity rating 0-100 (0 no damage, 100 complete death), 14 days after application
Outline: as §3

[19] = test system: redroot pigweed (Amaranthus retroflexus, AMARE); assay: as above; details: phytotoxicity rating 0-100 (0 no damage, 100 complete death), 14 days after application
Outline: as §3

[20] = test system: barnyardgrass (Echinochloa crus-galli, ECHCG); assay: as above; details: phytotoxicity rating 0-100 (0 no damage, 100 complete death), 14 days after application
Outline: as §3

[21] = test system: large crabgrass (Digitaria sanguinalis, DIGSA); assay: as above; details: phytotoxicity rating 0-100 (0 no damage, 100 complete death), 14 days after application
Outline: as §3

[22] = test system: sicklepod (Cassia obtusifolia, CASOB); assay: as above; details: phytotoxicity rating 0-100 (0 no damage, 100 complete death), 14 days after application
Outline: as §3

C=CC(=O)N(C(=O)C=C)c1c(OC)c(Cl)cc(F)c1-n1c(=O)cc(C(F)(F)F)n(C)c1=O [2-4]
Pre-emerge Herbicidal Activity AMARE (phytotoxicity rating, scale 0-100) ([1]; 63 g ai/ha): 80
Pre-emerge Herbicidal Activity AMARE (phytotoxicity rating, scale 0-100) ([1]; 250 g ai/ha): 95
Pre-emerge Herbicidal Activity SORHA (phytotoxicity rating, scale 0-100) ([2]; 63 g ai/ha): 0
Pre-emerge Herbicidal Activity SORHA (phytotoxicity rating, scale 0-100) ([2]; 250 g ai/ha): 0
Pre-emerge Herbicidal Activity ABUTH (phytotoxicity rating, scale 0-100) ([3]; 63 g ai/ha): 30
Pre-emerge Herbicidal Activity ABUTH (phytotoxicity rating, scale 0-100) ([3]; 250 g ai/ha): 100
Pre-emerge Herbicidal Activity CHEAL (phytotoxicity rating, scale 0-100) ([4]; 63 g ai/ha): 50
Pre-emerge Herbicidal Activity CHEAL (phytotoxicity rating, scale 0-100) ([4]; 250 g ai/ha): 100
Pre-emerge Herbicidal Activity IPOHE (phytotoxicity rating, scale 0-100) ([5]; 63 g ai/ha): 20
Pre-emerge Herbicidal Activity IPOHE (phytotoxicity rating, scale 0-100) ([5]; 250 g ai/ha): 70
Pre-emerge Herbicidal Activity SETVI (phytotoxicity rating, scale 0-100) ([6]; 63 g ai/ha): 0
Pre-emerge Herbicidal Activity SETVI (phytotoxicity rating, scale 0-100) ([6]; 250 g ai/ha): 80
Pre-emerge Herbicidal Activity ECHCG (phytotoxicity rating, scale 0-100) ([7]; 63 g ai/ha): 0
Pre-emerge Herbicidal Activity ECHCG (phytotoxicity rating, scale 0-100) ([7]; 250 g ai/ha): 0
Pre-emerge Herbicidal Activity DIGSA (phytotoxicity rating, scale 0-100) ([8]; 63 g ai/ha): 0
Pre-emerge Herbicidal Activity DIGSA (phytotoxicity rating, scale 0-100) ([8]; 250 g ai/ha): 50
Pre-emerge Herbicidal Activity CASOB (phytotoxicity rating, scale 0-100) ([9]; 63 g ai/ha): 0
Pre-emerge Herbicidal Activity CASOB (phytotoxicity rating, scale 0-100) ([9]; 250 g ai/ha): 0
Pre-emerge crop damage RICE (phytotoxicity rating, scale 0-100) ([10]; 63 g ai/ha): 0
Pre-emerge crop damage RICE (phytotoxicity rating, scale 0-100) ([10]; 250 g ai/ha): 10
Pre-emerge crop damage CORN (phytotoxicity rating, scale 0-100) ([11]; 63 g ai/ha): 0
Pre-emerge crop damage CORN (phytotoxicity rating, scale 0-100) ([11]; 250 g ai/ha): 20
Post-emerge Herbicidal Activity RICE (crop damage) ([12]; 63 g ai/ha): 0
Post-emerge Herbicidal Activity RICE (crop damage) ([12]; 250 g ai/ha): 0
Post-emerge Herbicidal Activity CORN (crop damage) ([13]; 63 g ai/ha): 0
Post-emerge Herbicidal Activity CORN (crop damage) ([13]; 250 g ai/ha): 0
Post-emerge Herbicidal Activity SORHA ([14]; 63 g ai/ha): 10
Post-emerge Herbicidal Activity SORHA ([14]; 250 g ai/ha): 10
Post-emerge Herbicidal Activity ABUTH ([15]; 63 g ai/ha): 0
Post-emerge Herbicidal Activity ABUTH ([15]; 250 g ai/ha): 50
Post-emerge Herbicidal Activity CHEAL ([16]; 63 g ai/ha): 50
Post-emerge Herbicidal Activity CHEAL ([16]; 250 g ai/ha): 50
Post-emerge Herbicidal Activity IPOHE ([17]; 63 g ai/ha): 0
Post-emerge Herbicidal Activity IPOHE ([17]; 250 g ai/ha): 20
Post-emerge Herbicidal Activity SETVI ([18]; 63 g ai/ha): 0
Post-emerge Herbicidal Activity SETVI ([18]; 250 g ai/ha): 0
Post-emerge Herbicidal Activity AMARE ([19]; 63 g ai/ha): 0
Post-emerge Herbicidal Activity AMARE ([19]; 250 g ai/ha): 70
Post-emerge Herbicidal Activity ECHCG ([20]; 63 g ai/ha): 0
Post-emerge Herbicidal Activity ECHCG ([20]; 250 g ai/ha): 0
Post-emerge Herbicidal Activity DIGSA ([21]; 63 g ai/ha): 0
Post-emerge Herbicidal Activity DIGSA ([21]; 250 g ai/ha): 0
Post-emerge Herbicidal Activity CASOB ([22]; 63 g ai/ha): 0
Post-emerge Herbicidal Activity CASOB ([22]; 250 g ai/ha): 0

C=C(C)C(=O)Nc1c(OC)c(Cl)cc(F)c1-n1c(=O)cc(C(F)(F)F)n(C)c1=O [2-5]
Pre-emerge Herbicidal Activity AMARE (phytotoxicity rating, scale 0-100) ([1]; 63 g ai/ha): 90
Pre-emerge Herbicidal Activity AMARE (phytotoxicity rating, scale 0-100) ([1]; 250 g ai/ha): 100
Pre-emerge Herbicidal Activity SORHA (phytotoxicity rating, scale 0-100) ([2]; 63 g ai/ha): 60
Pre-emerge Herbicidal Activity SORHA (phytotoxicity rating, scale 0-100) ([2]; 250 g ai/ha): 90
Pre-emerge Herbicidal Activity ABUTH (phytotoxicity rating, scale 0-100) ([3]; 63 g ai/ha): 100
Pre-emerge Herbicidal Activity ABUTH (phytotoxicity rating, scale 0-100) ([3]; 250 g ai/ha): 100
Pre-emerge Herbicidal Activity CHEAL (phytotoxicity rating, scale 0-100) ([4]; 63 g ai/ha): 100
Pre-emerge Herbicidal Activity CHEAL (phytotoxicity rating, scale 0-100) ([4]; 250 g ai/ha): 100
Pre-emerge Herbicidal Activity IPOHE (phytotoxicity rating, scale 0-100) ([5]; 63 g ai/ha): 90
Pre-emerge Herbicidal Activity IPOHE (phytotoxicity rating, scale 0-100) ([5]; 250 g ai/ha): 100
Pre-emerge Herbicidal Activity SETVI (phytotoxicity rating, scale 0-100) ([6]; 63 g ai/ha): 100
Pre-emerge Herbicidal Activity SETVI (phytotoxicity rating, scale 0-100) ([6]; 250 g ai/ha): 100
Pre-emerge Herbicidal Activity ECHCG (phytotoxicity rating, scale 0-100) ([7]; 63 g ai/ha): 10
Pre-emerge Herbicidal Activity ECHCG (phytotoxicity rating, scale 0-100) ([7]; 250 g ai/ha): 90
Pre-emerge Herbicidal Activity DIGSA (phytotoxicity rating, scale 0-100) ([8]; 63 g ai/ha): 50
Pre-emerge Herbicidal Activity DIGSA (phytotoxicity rating, scale 0-100) ([8]; 250 g ai/ha): 95
Pre-emerge Herbicidal Activity CASOB (phytotoxicity rating, scale 0-100) ([9]; 63 g ai/ha): 40
Pre-emerge Herbicidal Activity CASOB (phytotoxicity rating, scale 0-100) ([9]; 250 g ai/ha): 100
Pre-emerge crop damage RICE (phytotoxicity rating, scale 0-100) ([10]; 63 g ai/ha): 70
Pre-emerge crop damage RICE (phytotoxicity rating, scale 0-100) ([10]; 250 g ai/ha): 80
Pre-emerge crop damage CORN (phytotoxicity rating, scale 0-100) ([11]; 63 g ai/ha): 10
Post-emerge Herbicidal Activity RICE (crop damage) ([12]; 63 g ai/ha): 30
Post-emerge Herbicidal Activity RICE (crop damage) ([12]; 250 g ai/ha): 40
Post-emerge Herbicidal Activity CORN (crop damage) ([13]; 63 g ai/ha): 5
Post-emerge Herbicidal Activity CORN (crop damage) ([13]; 250 g ai/ha): 10
Post-emerge Herbicidal Activity SORHA ([14]; 63 g ai/ha): 0
Post-emerge Herbicidal Activity SORHA ([14]; 250 g ai/ha): 30
Post-emerge Herbicidal Activity ABUTH ([15]; 63 g ai/ha): 90
Post-emerge Herbicidal Activity ABUTH ([15]; 250 g ai/ha): 100
Post-emerge Herbicidal Activity CHEAL ([16]; 63 g ai/ha): 40
Post-emerge Herbicidal Activity CHEAL ([16]; 250 g ai/ha): 70
Post-emerge Herbicidal Activity IPOHE ([17]; 63 g ai/ha): 50
Post-emerge Herbicidal Activity IPOHE ([17]; 250 g ai/ha): 90
Post-emerge Herbicidal Activity SETVI ([18]; 63 g ai/ha): 0
Post-emerge Herbicidal Activity SETVI ([18]; 250 g ai/ha): 0
Post-emerge Herbicidal Activity AMARE ([19]; 63 g ai/ha): 20
Post-emerge Herbicidal Activity AMARE ([19]; 250 g ai/ha): 40
Post-emerge Herbicidal Activity ECHCG ([20]; 63 g ai/ha): 0
Post-emerge Herbicidal Activity ECHCG ([20]; 250 g ai/ha): 0
Post-emerge Herbicidal Activity DIGSA ([21]; 63 g ai/ha): 0
Post-emerge Herbicidal Activity DIGSA ([21]; 250 g ai/ha): 0
Post-emerge Herbicidal Activity CASOB ([22]; 63 g ai/ha): 10
Post-emerge Herbicidal Activity CASOB ([22]; 250 g ai/ha): 50
